From patent US10125097B2, “1- [1-(benzoyl)-pyrrolidine-2-carbonyl]-pyrrolidine-2-carbonitrile derivatives” (UNIVERSITAT DE BARCELONA, priority 2012, dated 2018) come the findings set out here.

Usually IC50 stands for the point on the concentration scale where inhibition reaches its midpoint.

Where two headings read alike, the source gives them in different places.

Data set [1] deals with human prolyl oligopeptidase (Homo sapiens (Human), UniProt P48147). As to the kind of experiment: POP inhibition assay (Z-G-P-AMC substrate, fluorimetric). The format is biochemical. Here is the method: Expression and Purification of Prolyl Oligopeptidase (POP)
human prolyl oligopeptidase, sequence (P48147 whole entry, the tested form may be a part): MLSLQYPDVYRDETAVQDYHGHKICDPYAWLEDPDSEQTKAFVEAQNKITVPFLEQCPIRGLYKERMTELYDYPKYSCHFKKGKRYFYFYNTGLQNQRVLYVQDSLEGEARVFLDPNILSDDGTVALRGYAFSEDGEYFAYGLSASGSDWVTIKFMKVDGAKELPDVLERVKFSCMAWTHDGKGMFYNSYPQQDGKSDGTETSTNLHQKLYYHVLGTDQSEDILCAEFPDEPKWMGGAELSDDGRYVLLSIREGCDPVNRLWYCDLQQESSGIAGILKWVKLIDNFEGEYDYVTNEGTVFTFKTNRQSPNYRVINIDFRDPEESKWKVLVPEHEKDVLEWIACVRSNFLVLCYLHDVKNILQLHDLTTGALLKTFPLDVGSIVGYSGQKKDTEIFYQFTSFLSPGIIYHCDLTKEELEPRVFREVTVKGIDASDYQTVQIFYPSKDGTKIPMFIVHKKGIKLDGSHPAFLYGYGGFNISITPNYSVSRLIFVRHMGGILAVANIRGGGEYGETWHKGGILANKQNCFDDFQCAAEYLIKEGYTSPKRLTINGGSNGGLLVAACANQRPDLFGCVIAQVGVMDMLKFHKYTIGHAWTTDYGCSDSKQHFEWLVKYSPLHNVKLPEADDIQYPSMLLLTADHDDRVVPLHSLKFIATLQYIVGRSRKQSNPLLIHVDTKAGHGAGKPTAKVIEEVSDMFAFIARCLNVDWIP
POP was obtained by expression in E. coli and affinity purification using a His tail fusion according to a literature procedure (Tarragó T et al., ChemBioChem 2006; 7:827-33) summarized below:
hPOP expression: E. coli BL21 competent cells were transformed with pETM10 hPOP. To induce expression, a pre-culture of LB medium (50 mL) containing kanamycin (50 μg/mL) was inoculated with one colony and was grown overnight at 37° C. Next day, two cultures of LB medium (500 mL) were inoculated with the overnight culture (10 mL). The inoculated cultures were grown at 37° C. and 220 rpm until the OD595 was 1.2 (2.5-3 hours). IPTG was then added (final concentration of 1 mM) and induction was performed overnight at 25° C. Cells were harvested (3500 g, 15 min, 4° C.) and the pellet was suspended in suspension buffer (50 mL) [Tris-HCl pH 8 (50 mM), NaCl (300 mM), imidazole (1 mM)] and sonicated with use of four cycles (each consisting of 15 sec of sonication and 15 sec of rest) at an intensity of 50% and 0.5 pulses, the sample being kept on ice. After sonication, the sample was centrifuged (40 000 g, 30 min, 4° C.) and the supernatant was used immediately for POP purification. An ÁKTA explorer FPLC system was used for purification. The supernatant was applied at a flow of 1 mL/min to a HiTrapQuelating column (5 mL) previously equilibrated with 5 column volumes of suspension buffer. The column was washed with suspension buffer until the absorbance at 280 nm returned to basal level. The column was then rinsed with 5 volumes of washing buffer (50 mM Tris-HCl, pH 8, 300 mM NaCl, 30 mM imidazole). The elution was performed with 4 volumes of elution buffer (50 mM Tris-HCl, pH 8, 300 mM NaCl, 500 mM imidazole). Fractions (4 mL) were collected during the entire elution. POP activity was checked in all fractions and positive ones were analyzed by SDS-PAGE and stained with Biosafe Comassie Stain G-250. Positive fractions were collected and desalted by use of a HiPrep 26/10 Desalting column with Tris-HCl (50 mM, pH 8) as buffer. Recombinant hPOP was quantified with the Bio-Rad Protein Assay with BSA as standard. Aliquots of the recombinant enzyme were prepared and immediately frozen with liquid nitrogen and stored at −80° C.
POP activity was determined following the method described by Toide et al (Toide K et al., J. Pharmacol. Exp. Ther. 1995; 274:1370-8), using Z-G-P-AMC (N-benzyloxycarbonyl-Gly-Pro-methylcoumarinyl-7-amide) as POP substrate. The reactions were performed in 96-well microtiter plates, which allowed simultaneous monitoring of multiple reactions. For each reaction, activity buffer (134 μl, 100 mM Na/K phosphate buffer, pH 8.0) was pre-incubated for 15 min at 37° C. with hPOP (ranging from 20 to 60 nM, depending on the activity of the hPOP batch) and the corresponding new compound solution (3 μl). A stock solution of new compound was prepared in DMSO (100 mM), and dilutions were prepared from this stock solution with DMSO. Alternatively, the reactions were performed using another activity buffer (141 μL, 100 mM Tris-acetate, […], 1 mM DTT, pH 7.3), pre-incubating with hPOP (10 nM) and the corresponding new compound solution (3 μl) (Conditions B).
After preincubation, Z-G-P-AMC (10 μl, 3 mM in 40% 1,4-dioxane) was added (3 μl, 1.5 mM in 40% of 1,4-dioxane, in Conditions B), and the reaction was incubated for 1 hour at 37° C. The reaction was stopped by adding sodium acetate (150 μl, 1 M, pH 4) and the formation of AMC was measured fluorimetrically. The excitation and emission wavelengths were 360/40 and 485/20 nm, respectively.
Several concentration points (ranging from 25 μM to 400 μM) were measured for each compound. The inhibitory activity on prolyl oligopeptidase was calculated according to eq 1. For each new compound, the fluorescence in the presence (a) and in the absence of hPOP (b) was measured. […]

A short description of data set [2]: Parallel artificial membrane permeability assay (PAMPA). To be noted: 200 μM initial concentration, pH 7.4, 4 hours, room temperature; for Papp at 4 h, 200 μM: PAMPA, read-out: Effective permeability Pe. It counts as in vitro ADME. Here is the method: Parallel artificial membrane permeability assay (PAMPA) described in Kansy M et al., J. Med. Chem. 1998; 41(7):1007-10 was used to determine the capacity of compounds to cross the Blood-Brain Barrier (BBB) by passive diffusion (Di L et al., Eur. J. Med. Chem. 2003; 38(3):223-32). The effective permeability (Pe) of the compounds was measured at an initial concentration of 200 μM. The buffer solution was prepared from a commercial concentrated one following the manufacturer's instructions. pH was adjusted to 7.4 using a 0.5 M NaOH solution. A stock solution of new compound was prepared in DMSO and diluted with buffer solution to a final 200 μM concentration (0.5% DMSO content). The PAMPA sandwich was separated and each donor well was filled with 200 μL of the compound solution. The acceptor plate was placed into the donor plate, ensuring that the underside of the membrane was in contact with buffer. 4 μL of the mixture of phospholipids (20 mg/mL) in dodecane was added to the filter of each well, and 200 μL of buffer solution was added to the each acceptor well. The plate was covered and incubated at room temperature in a saturated humidity atmosphere for 4 hours under orbital agitation at 100 rpm. After 4 hours, the contents of the acceptor and donor compartments were analyzed by HPLC: 150 μL of each well from the donor plate and 150 μL of each well from the acceptor plate were transferred to HPLC vials, injecting each sample into a reverse-phase C18 column (150 mm×4.6 mm×5 μm, 100 Å) (100 μL/injection from the acceptor wells, 10 μL/injection from the donor wells and for t0 references). Transport was also confirmed by MALDI-TOF spectrometry.
The phospholipid mixture used was a porcine polar brain lipid extract, provided by Avanti polar lipids, with the following composition: 12.6% phosphatidylcholine (PC), 33.1% phosphatidylethanolamine (PE), 18.5% phosphatidylserine (PS), 4.1% phosphatidylinositol (PI), 0.8% phosphatidic acid and 30.9% of other compounds.
The effective permeability (Pe) after 4 hours was calculated using equation 2 and the percentage of transport was calculated using equation 3:
[formula] wherein: t is time (h) CA(t) is the compound concentration in the acceptor well at time t and CD(to) is the compound concentration in the donor well at to.
(PAMPA measures passive passage across an artificial lipid membrane.)

Setting [3] is: 100 mM Na/K phosphate buffer, pH 8.0, hPOP 20 to 60 nM, Z-G-P-AMC, 1 hour at 37° C., read-out: IC50, inhibition of human prolyl oligopeptidase.
Setting [4] is: Conditions B: 100 mM Tris-acetate, 10 mM BSA, 1 mM DTT, pH 7.3, hPOP 10 nM, read-out: IC50, inhibition of human prolyl oligopeptidase, measured in conditions B.

As to `COc1cc(C(=O)N2C[C@H](OC)C[C@H]2C(=O)N2CCC[C@H]2C#N)cc(OC)c1OCc1ccccc1` [Example 1, (S)-1-((2S,4R)-1-(4-(benzyloxy)-3,5-dimethoxybenzoyl)-4-methoxypyrrolidine-2-carbonyl)pyrrolidine-2-carbonitrile], in data set [1] (setting [3]), the IC50 is 63.8 nM. Also, in data set [2], the “% T (percentage of transport)” value turned out to be 4.3% and the Papp at 4 h, 200 μM is 1 ×10⁻⁶ cm/s.

Take `COc1cc(C(=O)N2C[C@H](F)C[C@H]2C(=O)N2CCC[C@H]2C#N)cc(OC)c1OCc1ccccc1` [Example 2, (S)-1-((2S,4R)-1-(4-(benzyloxy)-3,5-dimethoxybenzoyl)-4-fluoropyrrolidine-2-carbonyl)pyrrolidine-2-carbonitrile]: the IC50 in data set [1] (setting [3]) is 60.4 nM. In data set [2], the “% T (percentage of transport)” value came to 13.03% and the Papp at 4 h, 200 μM was determined as 7.28 ×10⁻⁶ cm/s.

In the case of `COc1cc(C(=O)N2C[C@H](c3ccccc3)C[C@H]2C(=O)N2CCC[C@H]2C#N)cc(OC)c1OCc1ccccc1` [Example 3, (S)-1-((2S,4S)-1-(4-(benzyloxy)-3,5-dimethoxybenzoyl)-4-phenylpyrrolidine-2-carbonyl)pyrrolidine-2-carbonitrile], the IC50 in data set [1] (setting [3]) was 339 nM. For the same compound, in data set [2], the “% T (percentage of transport)” value is on record as 5.72% and the Papp at 4 h, 200 μM was 2.89 ×10⁻⁶ cm/s.

Regarding `COc1cc(C(=O)N2C[C@@H](SC)C[C@H]2C(=O)N2CCC[C@H]2C#N)cc(OC)c1OCc1ccccc1` [Example 5, (S)-1-((2S,4S)-1-(4-(benzyloxy)-3,5-dimethoxybenzoyl)-4-(methythio)pyrrolidine-2-carbonyl)pyrrolidine-2-carbonitrile], the IC50 in data set [1] (setting [3]) was found to be 176 nM. Besides, in data set [2], the “% T (percentage of transport)” value is reported as 17.03% and the Papp at 4 h, 200 μM amounted to 9.98 ×10⁻⁶ cm/s.

For `COc1cc(C(=O)N2C[C@@H](C)C[C@H]2C(=O)N2CCC[C@H]2C#N)cc(OC)c1OCc1ccccc1` [Example 6, (S)-1-((2S,4S)-1-(4-(benzyloxy)-3,5-dimethoxybenzoyl)-4-methylpyrrolidine-2-carbonyl)pyrrolidine-2-carbonitrile], in data set [1] (setting [4]), the IC50 is 13.1 nM. In addition, in data set [2], the “% T (percentage of transport)” value amounted to 14.76% and the Papp at 4 h, 200 μM came out at 3.79 ×10⁻⁶ cm/s.

As to `COc1cc(C(=O)N2C[C@@H](C(F)(F)F)C[C@H]2C(=O)N2CCC[C@H]2C#N)cc(OC)c1OCc1ccccc1` [Example 8, (S)-1-((2S,4S)-1-(4-(benzyloxy)-3,5-dimethoxybenzoyl)-4-(trifluoromethyl)-pyrrolidine-2-carbonyl)pyrrolidine-2-carbonitrile], in data set [1] (setting [3]), the IC50 is 176 nM. Moreover, in data set [2], the “% T (percentage of transport)” value was determined as 19.27% and the Papp at 4 h, 200 μM was 5.07 ×10⁻⁶ cm/s.

Take `COc1cc(C(=O)N2C[C@H](OC(C)(C)C)C[C@H]2C(=O)N2CCC[C@H]2C#N)cc(OC)c1OCc1ccccc1` [Example 9, (S)-1-((2S,4R)-1-(4-(benzyloxy)-3,5-dimethoxybenzoyl)-4-(tert-butoxy)pyrrolidine-2-carbonyl)pyrrolidine-2-carbonitrile]: the IC50 in data set [1] (setting [3]) stood at 668 nM.

In the case of `COc1cc(C(=O)N2CC(F)(F)C[C@H]2C(=O)N2CCC[C@H]2C#N)cc(OC)c1OC(C)=O` [Example 11, (S)-1-((2S)-1-(4-acetoxy-3,5-dimethoxybenzoyl)-4,4-difluoropyrrolidine-2-carbonyl)pyrrolidine-2-carbonitrile], the IC50 in data set [1] (setting [3]) was 352 nM.

Turning to `COc1cc(C(=O)N2CC(F)(F)C[C@H]2C(=O)N2CCC[C@H]2C#N)cc(OC)c1OC(=O)c1ccccc1` [Example 12, (S)-1-((2S)-1-(4-benzoyloxy-3,5-dimethoxybenzoyl)-4,4-difluoropyrrolidine-2-carbonyl)pyrrolidine-2-carbonitrile], in data set [1] (setting [3]), the IC50 came out at 111 nM. Further, in data set [2], the “% T (percentage of transport)” value is given as 8.47% and the Papp at 4 h, 200 μM stood at 2.1 ×10⁻⁶ cm/s.

`COc1cc(C(=O)N2CC(F)(F)C[C@H]2C(=O)N2CCC[C@H]2C#N)cc(OCc2ccccc2)c1OCc1ccccc1` [Example 13, (S)-1-((2S)-1-(3,4-dibenzyloxy-5-methoxybenzoyl)-4,4-difluoropyrrolidine-2-carbonyl)pyrrolidine-2-carbonitrile]: in data set [1] (setting [3]), the half-inhibitory concentration (IC50) came to 336 nM.

Take `COc1cc(C(=O)N2CC(F)(F)C[C@H]2C(=O)N2CCC[C@H]2C#N)cc(OC(C)=O)c1OC` [Example 15, (S)-1-((2S)-1-(3-acetoxy-4,5-dimethoxybenzoyl)-4,4-difluoropyrrolidine-2-carbonyl)pyrrolidine-2-carbonitrile]: in data set [1] (setting [3]), the IC50 turned out to be 5600 nM.

Take `COc1cc(C(=O)N2CC(F)(F)C[C@H]2C(=O)N2CCC[C@H]2C#N)cc(OC(=O)C(C)(C)C)c1OC` [Example 16, (S)-1-((2S)-1-(3-pivaloyloxy-4,5-dimethoxybenzoyl)-4,4-difluoropyrrolidine-2-carbonyl)pyrrolidine-2-carbonitrile]: the IC50 in data set [1] (setting [3]) turned out to be 2140 nM. Also, in data set [2], the “% T (percentage of transport)” value is on record as 19.08% and the Papp at 4 h, 200 μM was determined as 5.02 ×10⁻⁶ cm/s.

Take `N#C[C@@H]1CCCN1C(=O)[C@@H]1CC(F)(F)CN1C(=O)c1ccc(OCc2ccccc2)cc1` [Example 17, (S)-1-((S)-1-(4-(benzyloxy)benzoyl)-4,4-difluoropyrrolidine-2-carbonyl)pyrrolidine-2-carbonitrile]: the IC50 in data set [1] (setting [4]) was determined as 287 nM. In data set [2], the “% T (percentage of transport)” value is reported as 14.12% and the Papp at 4 h, 200 μM is 8.04 ×10⁻⁶ cm/s.
